Molecular target: 5-hydroxytryptamine receptor 1A (Bos taurus)
Assay: Ability to displace [3H]-DPAT from 5-hydroxytryptamine 1A receptor in homogenates of bovine hippocampus.
For `CCCN(CCC)C1Cc2cccc3c2N(CCC3)C1` (stereo not given), the Ki was 0.105 µM.
Work on `CCCN(CCC)C1Cc2cccc3nc(SC)n(c23)C1` (stereo not given) yielded a Ki of 0.173 µM.
In the case of `O=c1[nH]c2cccc3c2n1CC(NCC1CC1)C3` (stereo not given), the Ki is reported as 0.084 µM.
`CCCN(CCC)C1Cc2cccc3c2N(C1)C(=O)CC3` (stereo not given) gave a Ki of 0.0024 µM.
Compound `CCCN(CCC)C1Cc2cccc3c2N(C1)C(=O)CN3` (stereo not given) has a Ki of 0.049 µM.
With `CCCN(CCC)C1Cc2cccc3nc(C)n(c23)C1` (stereo not given) the Ki was 4.49 µM.
Work on `CCCN(CCC)C1Cc2cccc3c2N(CC3)C1` (stereo not given) yielded a Ki of 0.013 µM.
Compound `CCCN(CCC)C1Cc2cccc3ccn(c23)C1` (stereo not given) has a Ki of 0.252 µM.
Compound `CCCN(CCC)C1Cc2cccc3c2N(C1)C(=O)C3` (stereo not given) has a Ki of 0.108 µM.
`O=c1[nH]c2cccc3c2n1CC(N(CC1CC1)CC1CC1)C3` (stereo not given) showed a Ki of 0.095 µM.
`CCCN(CCC)C1Cc2cccc3oc(=O)n(c23)C1` (stereo not given) gave a Ki of over 1 µM.
With `CCCN(CCC)C1Cc2cccc3[nH]c(=O)c(=O)n(c23)C1` (stereo not given) the Ki was over 1 µM.
In the case of `CCCN(CCC)C1Cc2cccc3ncn(c23)C1` (stereo not given), the Ki is reported as 0.827 µM.

Molecular target: not listed separately
Assay: Compound was evaluated for its ability to displace [3H]DPAT from 5-HT1A receptor in homogenates of bovine hippocampus
For `CCCN(CCC)C1Cc2cccc3c2n(c(=O)n3C)C1` (stereo not given), the Ki was 0.124 µM.
Compound `CCCCNC1Cc2cccc3[nH]c(=O)n(c23)C1` (stereo not given) has a Ki of over 1 µM.

Source: BindingDB's records for doi:10.1021/jm00084a013 (Upjohn Laboratories, 1992)
